# Assay results published in patent publication US8686150B2 (Sanofi, priority 2011, dated 2014).
# Target: T1, human full-length recombinant PKC βII (Homo sapiens, UniProt P05771)
# T1 construct: Active human full-length recombinant PKC βII; purchased Invitrogen GmbH, Darmstadt, Germany
# Test: Determination of PKC βII inhibition (Caliper mobility-shift kinase assay, Fluorescein-RFARKGSLRQKNV peptide substrate)
# Format: biochemical
# Settings: example compounds at a final concentration of 1.14 μM (±0.15 μM)
# Method in brief: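 Full-length PKC βII (30 ng/ml in pre-dilution) with PS/DAG/Ca2+ activators, pH 7.4; fluorescein peptide and ATP at 3 μM and 120 μM before mixing. Reaction ran 60 min at 32 °C, was EDTA-stopped, and was read by mobility shift. % inhibition came from product/(substrate+product) peak heights, tested at 1.14 μM final.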
# T1 sequence (P05771 1-673 isoform P05771-2): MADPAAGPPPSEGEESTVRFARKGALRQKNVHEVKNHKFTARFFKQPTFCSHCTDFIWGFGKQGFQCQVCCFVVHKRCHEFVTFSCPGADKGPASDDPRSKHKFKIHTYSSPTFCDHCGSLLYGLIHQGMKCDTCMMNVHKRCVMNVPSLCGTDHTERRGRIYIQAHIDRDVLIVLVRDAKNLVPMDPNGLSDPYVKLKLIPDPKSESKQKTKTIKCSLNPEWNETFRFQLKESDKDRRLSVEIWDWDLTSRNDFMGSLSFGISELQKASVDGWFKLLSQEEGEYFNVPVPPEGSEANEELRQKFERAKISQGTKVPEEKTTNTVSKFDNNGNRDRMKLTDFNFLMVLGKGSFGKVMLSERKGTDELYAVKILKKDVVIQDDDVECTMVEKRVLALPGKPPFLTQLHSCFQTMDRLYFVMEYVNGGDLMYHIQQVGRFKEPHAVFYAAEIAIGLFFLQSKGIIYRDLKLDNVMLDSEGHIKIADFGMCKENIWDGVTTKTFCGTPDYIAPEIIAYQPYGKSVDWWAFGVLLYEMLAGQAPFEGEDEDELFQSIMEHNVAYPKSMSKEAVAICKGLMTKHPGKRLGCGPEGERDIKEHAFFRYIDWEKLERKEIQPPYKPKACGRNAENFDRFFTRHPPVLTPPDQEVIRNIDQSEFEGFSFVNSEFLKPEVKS
row,SMILES,inhibition at 1.14 µM [%]
1,"Cc1n[nH]c2nc(-c3ccc(O)c(F)c3)cc(C(=O)N3CC(=O)NC(C(C)C)C3)c12 (stereo not shown) [Example 368, 4-[6-(3-Fluoro-4-hydroxy-phenyl)-3-methyl-1H-pyrazolo[3,4-b]pyridine-4-carbonyl]-6-isopropyl-piperazin-2-one]",58
2,"Cc1n[nH]c2nc(-c3ccc(O)c(F)c3)cc(C(=O)NCC(C)(c3ccccn3)N3CCCC3)c12 (stereo not shown) [Example 370, 6-(3-Fluoro-4-hydroxy-phenyl)-3-methyl-1H-pyrazolo[3,4-b]pyridine-4-carboxylic acid (2-pyridin-2-yl-2-pyrrolidin-1-yl-propyl)-amide]",48
3,"Cc1n[nH]c2nc(-c3ccc(O)c(F)c3)cc(C(=O)NCC(C)(CN3CCCC3)c3ccccn3)c12 (stereo not shown) [Example 371, 6-(3-Fluoro-4-hydroxy-phenyl)-3-methyl-1H-pyrazolo[3,4-b]pyridine-4-carboxylic acid (2-methyl-2-pyridin-2-yl-3-pyrrolidin-1-yl-propyl)-amide]",31
4,"Cc1n[nH]c2nc(-c3ccc(O)cc3)cc(C(=O)NC3CC4(CCNCC4)c4ccccc43)c12 (stereo not shown) [Example 373, 6-(4-Hydroxy-phenyl)-3-methyl-1H-pyrazolo[3,4-b]pyridine-4-carboxylic acid (2,3-dihydro-spiro[1H-indene-1,4′-piperidin]-3-yl)-amide]",96
5,"COc1ccc(C(CNC(=O)c2cc(-c3ccc(O)cc3)nc3[nH]nc(C)c23)N(C)C)cc1 (stereo not shown) [Example 376, 6-(4-Hydroxy-phenyl)-3-methyl-1H-pyrazolo[3,4-b]pyridine-4-carboxylic acid [2-dimethylamino-2-(4-methoxy-phenyl)-ethyl]-amide]",64
6,"Cc1n[nH]c2nc(-c3ccc(O)cc3)cc(C(=O)N3CCN(C(=O)N4CCCC4)CC3)c12 [Example 379, {4-[6-(4-Hydroxy-phenyl)-3-methyl-1H-pyrazolo[3,4-b]pyridine-4-carbonyl]-piperazin-1-yl}-pyrrolidin-1-yl-methanone]",86
7,"Cc1n[nH]c2nc(-c3ccc(O)cc3)cc(C(=O)N3CCN(C(=O)c4ccoc4)CC3)c12 [Example 380, [4-(Furan-3-carbonyl)-piperazin-1-yl]-[6-(4-hydroxy-phenyl)-3-methyl-1H-pyrazolo[3,4-b]pyridin-4-yl]-methanone]",83
8,"Cc1n[nH]c2nc(-c3ccc(O)cc3)cc(C(=O)N3CCN4CCC[C@H]4C3)c12 [Example 383, (S)-Hexahydro-pyrrolo[1,2-a]pyrazin-2-yl-[6-(4-hydroxy-phenyl)-3-methyl-1H-pyrazolo[3,4-b]pyridin-4-yl]-methanone]",66
9,"Cc1n[nH]c2nc(-c3ccc(O)cc3)cc(C(=O)N3CCCN(C(=O)c4ccncc4)CC3)c12 [Example 387, [6-(4-Hydroxy-phenyl)-3-methyl-1H-pyrazolo[3,4-b]pyridin-4-yl]-[4-(pyridine-4-carbonyl)-[1,4]diazepan-1-yl]-methanone]",39
10,"Cc1n[nH]c2nc(-c3ccc(O)cc3)cc(C(=O)NCC(C)N3CCCC3)c12 (stereo not shown) [Example 389, 6-(4-Hydroxy-phenyl)-3-methyl-1H-pyrazolo[3,4-b]pyridine-4-carboxylic acid (2-pyrrolidin-1-yl-propyl)-amide]",65
11,"Cc1n[nH]c2nc(-c3ccc(O)cc3)cc(C(=O)NCC(c3ccccc3)N3CCNCC3)c12 (stereo not shown) [Example 393, 6-(4-Hydroxy-phenyl)-3-methyl-1H-pyrazolo[3,4-b]pyridine-4-carboxylic acid (2-phenyl-2-piperazin-1-yl-ethyl)-amide]",55
12,"Cc1n[nH]c2nc(-c3ccc(O)cc3)cc(C(=O)NCC(c3ccccc3)N3CCOCC3)c12 (stereo not shown) [Example 394, 6-(4-Hydroxy-phenyl)-3-methyl-1H-pyrazolo[3,4-b]pyridine-4-carboxylic acid (2-morpholin-4-yl-2-phenyl-ethyl)-amide]",23
13,"Cc1n[nH]c2nc(-c3ccc(O)cc3)cc(C(=O)NCCC3CCNCC3)c12 [Example 395, 6-(4-Hydroxy-phenyl)-3-methyl-1H-pyrazolo[3,4-b]pyridine-4-carboxylic acid (2-piperidin-4-yl-ethyl)-amide]",42
14,"Cc1n[nH]c2nc(-c3ccc(O)cc3)cc(C(=O)NC3CCC(N(C)C)CC3)c12 (stereo not shown) [Example 396, 6-(4-Hydroxy-phenyl)-3-methyl-1H-pyrazolo[3,4-b]pyridine-4-carboxylic acid (4-dimethylamino-cyclohexyl)-amide]",39
15,"C[C@H]1CN(C(=O)c2cc(-c3ccc(O)cc3)nc3[nH]nc(C(F)(F)F)c23)CCN1 [Example 397, [6-(4-Hydroxy-phenyl)-3-trifluoromethyl-1H-pyrazolo[3,4-b]pyridin-4-yl]-((S)-3-methyl-piperazin-1-yl)-methanone]",73
16,"O=C(N[C@@H]1CCCNC1)c1cc(-c2ccc(O)cc2)nc2[nH]nc(C(F)(F)F)c12 [Example 398, 6-(4-Hydroxy-phenyl)-3-trifluoromethyl-1H-pyrazolo[3,4-b]pyridine-4-carboxylic acid (R)-piperidin-3-ylamide]",21

# Results, then the compound that gave them:
row,inhibition at 1.14 µM [%],SMILES
1,34,"Cc1n[nH]c2nc(-c3ccc(O)c(F)c3)cc(C(=O)N3CC4CCCN4CC3c3ccccc3)c12 (stereo not shown) [Example 369, [6-(3-Fluoro-4-hydroxy-phenyl)-3-methyl-1H-pyrazolo[3,4-b]pyridin-4-yl]-(3-phenyl-hexahydro-pyrrolo[1,2-a]pyrazin-2-yl)-methanone]"
2,66,"Cc1n[nH]c2nc(-c3ccc(O)cc3)cc(C(=O)N3CCN(C)CC3c3ccccc3)c12 (stereo not shown) [Example 372, [6-(4-Hydroxy-phenyl)-3-methyl-1H-pyrazolo[3,4-b]pyridin-4-yl]-(4-methyl-2-phenyl-piperazin-1-yl)-methanone]"
3,99,"Cc1n[nH]c2nc(-c3ccc(O)cc3)cc(C(=O)N3CCNCC3c3cccnc3)c12 (stereo not shown) [Example 374, [6-(4-Hydroxy-phenyl)-3-methyl-1H-pyrazolo[3,4-b]pyridin-4-yl]-(2-pyridin-3-yl-piperazin-1-yl)-methanone]"
4,90,"Cc1n[nH]c2nc(-c3ccc(O)cc3)cc(C(=O)N3CCNC(Cc4ccccc4)C3)c12 (stereo not shown) [Example 375, (3-Benzyl-piperazin-1-yl)-[6-(4-hydroxy-phenyl)-3-methyl-1H-pyrazolo[3,4-b]pyridin-4-yl]-methanone]"
5,69,"Cc1n[nH]c2nc(-c3ccc(O)cc3)cc(C(=O)NC(CN3CCCC3)c3ccccc3)c12 (stereo not shown) [Example 377, 6-(4-Hydroxy-phenyl)-3-methyl-1H-pyrazolo[3,4-b]pyridine-4-carboxylic acid (1-phenyl-2-pyrrolidin-1-yl-ethyl)-amide]"
6,87,"Cc1n[nH]c2nc(-c3ccc(O)cc3)cc(C(=O)N3CCNCC3c3ccc(Cl)cc3)c12 (stereo not shown) [Example 378, [2-(4-Chloro-phenyl)-piperazin-1-yl]-[6-(4-hydroxy-phenyl)-3-methyl-1H-pyrazolo[3,4-b]pyridin-4-yl]-methanone]"
7,37,"COc1ccccc1C(=O)N1CCN(C(=O)c2cc(-c3ccc(O)cc3)nc3[nH]nc(C)c23)CC1 [Example 381, [6-(4-Hydroxy-phenyl)-3-methyl-1H-pyrazolo[3,4-b]pyridin-4-yl]-[4-(2-methoxy-benzoyl)-piperazin-1-yl]-methanone]"
8,67,"Cc1n[nH]c2nc(-c3ccc(O)cc3)cc(C(=O)NC3CCN(CCc4ccccc4)CC3)c12 [Example 382, 6-(4-Hydroxy-phenyl)-3-methyl-1H-pyrazolo[3,4-b]pyridine-4-carboxylic acid (1-phenethyl-piperidin-4-yl)-amide]"
9,67,"Cc1n[nH]c2nc(-c3ccc(O)cc3)cc(C(=O)NC3CCN(Cc4ccccc4)C3)c12 (stereo not shown) [Example 384, 6-(4-Hydroxy-phenyl)-3-methyl-1H-pyrazolo[3,4-b]pyridine-4-carboxylic acid (1-benzyl-pyrrolidin-3-yl)-amide]"
10,24,"Cc1n[nH]c2nc(-c3ccc(O)cc3)cc(C(=O)N3CCC(Nc4ccccc4)C3)c12 (stereo not shown) [Example 385, [6-(4-Hydroxy-phenyl)-3-methyl-1H-pyrazolo[3,4-b]pyridin-4-yl]-(3-phenylamino-pyrrolidin-1-yl)-methanone]"
11,51,"Cc1n[nH]c2nc(-c3ccc(O)cc3)cc(C(=O)N3CC4CN(Cc5ccccc5)CC4C3)c12 (stereo not shown) [Example 386, (5-Benzyl-hexahydro-pyrrolo[3,4-c]pyrrol-2-yl)-[6-(4-hydroxy-phenyl)-3-methyl-1H-pyrazolo[3,4-b]pyridin-4-yl]-methanone]"
12,54,"Cc1n[nH]c2nc(-c3ccc(O)cc3)cc(C(=O)NCCN3CCC(c4ccccc4)C3)c12 (stereo not shown) [Example 388, 6-(4-Hydroxy-phenyl)-3-methyl-1H-pyrazolo[3,4-b]pyridine-4-carboxylic acid [2-(3-phenyl-pyrrolidin-1-yl)-ethyl]-amide]"
13,67,"Cc1n[nH]c2nc(-c3ccc(O)cc3)cc(C(=O)NCCN3CCC(c4ccccc4)CC3)c12 [Example 390, 6-(4-Hydroxy-phenyl)-3-methyl-1H-pyrazolo[3,4-b]pyridine-4-carboxylic acid [2-(4-phenyl-piperidin-1-yl)-ethyl]-amide]"
14,84,"Cc1n[nH]c2nc(-c3ccc(O)cc3)cc(C(=O)NCC(c3ccccc3)N3CCCC3)c12 (stereo not shown) [Example 391, 6-(4-Hydroxy-phenyl)-3-methyl-1H-pyrazolo[3,4-b]pyridine-4-carboxylic acid (2-phenyl-2-pyrroiidin-1-yl-ethyl)-amide]"
15,49,"Cc1n[nH]c2nc(-c3ccc(O)cc3)cc(C(=O)NC3CCN(Cc4ccccc4)CC3)c12 [Example 392, 6-(4-Hydroxy-phenyl)-3-methyl-1H-pyrazolo[3,4-b]pyridine-4-carboxylic acid (1-benzyl-piperidin-4-yl)-amide]"
